From ChEMBL document CHEMBL1201862, “PubChem BioAssay data set” (2004)
Values belong to the molecule of their own block, whether it stands above or below them. Activity calls are given as the source filed them.

Tests used:
cells [1] = assay type: functional, cell-based
cells [2] = assay type: functional, cell-based; remark: listed apart in the source
Exodeoxyribonuclease V = Exodeoxyribonuclease V (Escherichia coli (strain K12), UniProt P04993+P07648+P08394); assay: RecBCD inhibition via phage-restricted bacterial growth – absorbance, V66 E. coli, mutant T4 phage, counter-screen for AddAB inhibitor project, dose response (AID 492957); assay type: functional, cell-based, Escherichia coli str. K-12 substr. MG1655
Chain of Exodeoxyribonuclease V (P04993 whole entry): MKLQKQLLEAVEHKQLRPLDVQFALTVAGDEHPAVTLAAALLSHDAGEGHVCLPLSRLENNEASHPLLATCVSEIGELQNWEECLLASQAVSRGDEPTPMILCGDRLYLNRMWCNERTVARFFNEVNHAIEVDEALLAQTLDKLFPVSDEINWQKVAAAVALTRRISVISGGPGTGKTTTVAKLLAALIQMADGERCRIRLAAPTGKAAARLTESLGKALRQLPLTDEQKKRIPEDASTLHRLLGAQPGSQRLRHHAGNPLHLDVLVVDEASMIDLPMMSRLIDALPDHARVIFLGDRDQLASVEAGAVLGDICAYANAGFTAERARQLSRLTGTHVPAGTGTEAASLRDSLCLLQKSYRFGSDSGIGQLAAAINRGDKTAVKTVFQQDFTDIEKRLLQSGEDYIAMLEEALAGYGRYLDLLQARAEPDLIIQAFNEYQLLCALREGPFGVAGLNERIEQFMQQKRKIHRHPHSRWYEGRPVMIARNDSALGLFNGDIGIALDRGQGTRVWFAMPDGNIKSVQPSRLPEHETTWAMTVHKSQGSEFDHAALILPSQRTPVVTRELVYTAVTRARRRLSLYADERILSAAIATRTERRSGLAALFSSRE
Chain of Exodeoxyribonuclease V (P07648 whole entry): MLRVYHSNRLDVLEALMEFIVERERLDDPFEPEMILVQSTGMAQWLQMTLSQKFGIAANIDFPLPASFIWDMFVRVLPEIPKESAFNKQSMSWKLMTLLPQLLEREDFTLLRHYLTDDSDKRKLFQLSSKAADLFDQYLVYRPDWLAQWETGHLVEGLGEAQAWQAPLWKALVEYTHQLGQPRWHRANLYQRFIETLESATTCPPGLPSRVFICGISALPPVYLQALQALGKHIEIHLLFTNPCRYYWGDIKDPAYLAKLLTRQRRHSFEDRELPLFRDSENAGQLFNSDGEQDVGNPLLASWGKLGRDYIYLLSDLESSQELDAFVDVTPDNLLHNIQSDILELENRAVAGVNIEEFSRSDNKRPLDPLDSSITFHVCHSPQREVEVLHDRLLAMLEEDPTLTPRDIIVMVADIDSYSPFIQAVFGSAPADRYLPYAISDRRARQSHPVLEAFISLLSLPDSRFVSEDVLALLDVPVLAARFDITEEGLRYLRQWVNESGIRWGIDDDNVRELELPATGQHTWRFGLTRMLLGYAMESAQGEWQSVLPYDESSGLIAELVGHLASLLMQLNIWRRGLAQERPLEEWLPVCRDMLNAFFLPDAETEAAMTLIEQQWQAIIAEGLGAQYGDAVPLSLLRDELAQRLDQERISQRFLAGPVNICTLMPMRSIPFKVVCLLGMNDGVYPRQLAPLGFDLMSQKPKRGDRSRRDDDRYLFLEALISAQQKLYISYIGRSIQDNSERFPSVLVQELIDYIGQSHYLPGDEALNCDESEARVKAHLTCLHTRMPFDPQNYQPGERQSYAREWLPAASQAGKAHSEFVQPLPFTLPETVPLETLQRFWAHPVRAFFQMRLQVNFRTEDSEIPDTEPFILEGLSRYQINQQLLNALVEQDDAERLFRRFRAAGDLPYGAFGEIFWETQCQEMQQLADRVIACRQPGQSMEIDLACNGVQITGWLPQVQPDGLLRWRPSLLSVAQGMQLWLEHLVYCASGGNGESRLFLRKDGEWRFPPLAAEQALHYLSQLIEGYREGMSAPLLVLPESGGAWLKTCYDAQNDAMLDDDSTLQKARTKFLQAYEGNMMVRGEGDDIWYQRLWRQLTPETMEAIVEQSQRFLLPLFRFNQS
Chain of Exodeoxyribonuclease V (P08394 whole entry): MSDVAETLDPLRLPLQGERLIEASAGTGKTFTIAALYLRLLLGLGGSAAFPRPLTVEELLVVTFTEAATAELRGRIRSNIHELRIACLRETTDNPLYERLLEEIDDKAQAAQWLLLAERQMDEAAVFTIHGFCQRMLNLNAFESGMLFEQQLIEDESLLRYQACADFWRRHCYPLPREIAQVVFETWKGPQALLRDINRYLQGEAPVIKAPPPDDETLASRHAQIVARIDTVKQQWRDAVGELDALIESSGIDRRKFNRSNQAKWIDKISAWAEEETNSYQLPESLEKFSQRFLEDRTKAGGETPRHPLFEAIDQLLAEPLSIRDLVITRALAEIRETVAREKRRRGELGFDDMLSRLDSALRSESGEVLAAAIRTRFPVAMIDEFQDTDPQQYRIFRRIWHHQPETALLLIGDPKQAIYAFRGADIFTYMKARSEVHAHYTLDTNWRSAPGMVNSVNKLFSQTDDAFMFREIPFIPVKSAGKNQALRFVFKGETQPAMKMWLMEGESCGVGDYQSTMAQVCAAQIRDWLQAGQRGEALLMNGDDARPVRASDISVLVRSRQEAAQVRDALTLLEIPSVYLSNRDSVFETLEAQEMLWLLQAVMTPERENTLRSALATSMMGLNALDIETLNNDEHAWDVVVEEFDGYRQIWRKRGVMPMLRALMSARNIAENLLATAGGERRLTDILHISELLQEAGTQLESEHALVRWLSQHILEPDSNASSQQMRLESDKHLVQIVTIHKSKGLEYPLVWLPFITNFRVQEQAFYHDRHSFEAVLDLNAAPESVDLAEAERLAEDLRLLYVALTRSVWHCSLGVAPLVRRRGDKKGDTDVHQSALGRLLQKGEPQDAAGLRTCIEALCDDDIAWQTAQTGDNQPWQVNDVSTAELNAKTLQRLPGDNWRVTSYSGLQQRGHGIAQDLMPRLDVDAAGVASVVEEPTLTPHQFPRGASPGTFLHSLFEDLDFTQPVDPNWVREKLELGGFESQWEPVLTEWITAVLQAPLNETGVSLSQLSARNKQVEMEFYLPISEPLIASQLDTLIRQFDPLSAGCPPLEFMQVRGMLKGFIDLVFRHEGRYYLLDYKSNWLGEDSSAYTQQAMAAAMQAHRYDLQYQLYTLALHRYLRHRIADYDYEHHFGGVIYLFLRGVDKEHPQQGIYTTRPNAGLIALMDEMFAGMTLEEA

[3] = Counterscreen for AddAB inhibitors: absorbance-based bacterial cell-based high throughput dose response assay for inhibitors of bacterial viability. [Related pubchem assays (depositor defined):AID435030, AID449728, AID449731, AID488942, AID488955, AID488956]; assay type: functional
HEK293 [4] = assay: EBV LMP1 TES2 canonical NF-kB signalling blockers – cell-based, HEK293, luciferase, cherry-pick, dose response (AID 588343); assay type: functional; conditions: Homo sapiens
[5] = target: Heat shock protein HSP 90-alpha (Homo sapiens, UniProt P07900); assay type: functional, organism-based
[6] = reduction of Shn3 3'UTR-driven luciferase in osteoblasts – cell-based, Clone20 osteoblasts, firefly luciferase, cherry-picked, dose response (AID 624132); assay type: functional;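 note: firefly luciferase luminescence from reporter carrying the Shn3 3'UTR in osteoblasts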
[7] = loss of viability in HepG2 cells – cell-based, CellTiter-Glo, cherry-picked, cytotoxicity control for Shn3 inhibitor project, dose response (AID 624134); assay type: functional
[8] = non-specific 3'UTR reporter inhibition in Clone20-Shn3RL – cell-based, Renilla luciferase, cherry-picked, counter-screen for Shn3 inhibitor project, dose response (AID 624133); assay type: functional
[9] = target: 1-acylglycerol-3-phosphate O-acyltransferase ABHD5/Perilipin-5 (Homo sapiens, UniProt Q00G26+Q8WTS1); assay: Luminescence-based biochemical high throughput dose response assay for inhibitors of the interaction of the lipase co-activator protein, abhydrolase domain containing 5 (ABHD5) with perilipin-5 (MLDP; PLIN5) (2K validation set). [Related pubchem assays (depositor defined):AID493035, AID493241]
Perilipin-1/ABHD5 = Perilipin-1/ABHD5 (Homo sapiens, UniProt O60240+Q8WTS1); assay: Luminescence-based biochemical high throughput dose response assay for inhibitors of the interaction of the lipase co-activator protein, abhydrolase domain containing 5 (ABHD5) with perilipin-1 (PLIN1) (2K validation set). [Related pubchem assays (depositor defined):AID493027, AID493057]
Chain of Perilipin-1/ABHD5 (Q8WTS1 whole entry, the tested form may be a part): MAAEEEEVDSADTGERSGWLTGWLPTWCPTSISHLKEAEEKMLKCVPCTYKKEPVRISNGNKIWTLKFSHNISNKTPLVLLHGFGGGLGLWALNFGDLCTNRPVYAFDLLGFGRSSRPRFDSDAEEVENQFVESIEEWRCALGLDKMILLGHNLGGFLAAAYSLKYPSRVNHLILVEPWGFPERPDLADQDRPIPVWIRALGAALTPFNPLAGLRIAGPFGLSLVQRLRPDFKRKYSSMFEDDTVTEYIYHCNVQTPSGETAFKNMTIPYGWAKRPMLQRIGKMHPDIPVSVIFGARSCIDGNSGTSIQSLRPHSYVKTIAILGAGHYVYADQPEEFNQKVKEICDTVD
Chain of Perilipin-1/ABHD5 (O60240 whole entry, the tested form may be a part): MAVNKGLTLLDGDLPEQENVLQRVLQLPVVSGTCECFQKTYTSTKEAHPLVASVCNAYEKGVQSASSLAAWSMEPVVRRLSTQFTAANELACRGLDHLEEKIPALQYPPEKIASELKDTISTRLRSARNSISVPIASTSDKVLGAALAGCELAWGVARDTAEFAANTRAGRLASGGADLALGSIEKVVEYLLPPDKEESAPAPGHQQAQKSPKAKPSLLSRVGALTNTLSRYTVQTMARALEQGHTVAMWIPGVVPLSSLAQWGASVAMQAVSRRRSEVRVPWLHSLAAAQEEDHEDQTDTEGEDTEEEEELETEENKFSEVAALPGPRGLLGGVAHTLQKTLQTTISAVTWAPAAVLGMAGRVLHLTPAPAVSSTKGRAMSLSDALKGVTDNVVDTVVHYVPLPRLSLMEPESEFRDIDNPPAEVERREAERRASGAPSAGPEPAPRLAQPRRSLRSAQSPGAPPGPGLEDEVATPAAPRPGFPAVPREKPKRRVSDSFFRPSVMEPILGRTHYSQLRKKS

[10] = target: Eukaryotic translation initiation factor 4E (Mus musculus, UniProt P63073); assay: blockers of eIF4G binding by eIF4E – biochemical, TR-FRET, dose response (AID 855); assay type: functional;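 note: potency for disrupting eIF4E binding to eIF4GI seen as loss of FRET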
[11] = target: T1, G-protein coupled receptor 55 (Homo sapiens, UniProt Q9Y2T6); assay: selective activators of receptor GPR55 – imaging, U2OS cells, beta-arrestin-GFP redistribution, primary screen (AID 1961); assay type: functional
T1 sequence (Q9Y2T6 whole entry): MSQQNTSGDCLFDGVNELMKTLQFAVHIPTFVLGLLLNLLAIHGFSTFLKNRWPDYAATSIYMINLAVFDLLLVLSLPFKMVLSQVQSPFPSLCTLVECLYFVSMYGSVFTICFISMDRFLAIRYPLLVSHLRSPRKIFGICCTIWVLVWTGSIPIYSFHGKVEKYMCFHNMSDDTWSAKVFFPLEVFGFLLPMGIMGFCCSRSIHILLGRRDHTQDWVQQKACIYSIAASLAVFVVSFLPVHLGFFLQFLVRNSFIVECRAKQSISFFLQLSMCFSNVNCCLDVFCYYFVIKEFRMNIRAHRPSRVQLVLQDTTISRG

Cannabinoid receptor 2 [12] = target: T2, Cannabinoid receptor 2 (Homo sapiens, UniProt P34972); assay: SAR analysis of antagonists of the Cannabinoid Receptor 2 using an Image-Based Assay - Set 2. [Related pubchem assays (depositor defined):AID1961, AID1965]; assay type: functional
T2 sequence (P34972 whole entry): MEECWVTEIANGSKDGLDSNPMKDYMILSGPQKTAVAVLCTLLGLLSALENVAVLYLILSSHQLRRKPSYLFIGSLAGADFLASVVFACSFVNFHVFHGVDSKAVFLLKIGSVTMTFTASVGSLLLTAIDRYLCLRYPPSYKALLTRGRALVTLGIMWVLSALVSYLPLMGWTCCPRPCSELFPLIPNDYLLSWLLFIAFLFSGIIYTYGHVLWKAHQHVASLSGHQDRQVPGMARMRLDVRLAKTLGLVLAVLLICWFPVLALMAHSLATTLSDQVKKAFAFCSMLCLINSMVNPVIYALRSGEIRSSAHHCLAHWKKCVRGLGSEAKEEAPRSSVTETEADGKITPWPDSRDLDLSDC

Cannabinoid receptor 2 [13] = target: T2, Cannabinoid receptor 2; assay: SAR analysis of agonists of the Cannabinoid Receptor 2 using an Image-Based Assay - Set 2. [Related pubchem assays (depositor defined):AID1961, AID1965]; assay type: functional
[14] = target: T1, G-protein coupled receptor 55; assay: SAR analysis of selective Agonists of GPR55 using an Image-Based Assay. [Related pubchem assays (depositor defined):AID1961, AID1965]; assay type: functional
Cannabinoid receptor 1 = Cannabinoid receptor 1 (Homo sapiens, UniProt P21554); assay: SAR analysis of antagonists of the Cannabinoid Receptor 1 using an Image-Based Assay. [Related pubchem assays (depositor defined):AID1961, AID1965]; assay type: functional
Chain of Cannabinoid receptor 1 (P21554 whole entry): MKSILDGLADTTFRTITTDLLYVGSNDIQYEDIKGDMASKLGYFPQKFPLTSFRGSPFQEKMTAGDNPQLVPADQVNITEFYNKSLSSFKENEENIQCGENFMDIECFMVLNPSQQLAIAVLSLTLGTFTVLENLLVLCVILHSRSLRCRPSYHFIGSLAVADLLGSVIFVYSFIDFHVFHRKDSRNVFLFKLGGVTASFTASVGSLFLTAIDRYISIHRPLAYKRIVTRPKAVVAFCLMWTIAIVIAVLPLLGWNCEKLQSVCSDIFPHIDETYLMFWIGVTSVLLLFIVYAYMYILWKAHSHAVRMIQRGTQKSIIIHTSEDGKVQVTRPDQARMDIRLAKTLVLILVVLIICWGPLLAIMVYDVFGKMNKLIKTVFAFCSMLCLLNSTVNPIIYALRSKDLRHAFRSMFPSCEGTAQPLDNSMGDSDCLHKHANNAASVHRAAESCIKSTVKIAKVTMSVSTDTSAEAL

HEK293 [15] = assay: inhibition of NOD1-driven NF-kB reporter – cell-based, luminescence, uHTS, primary screen (AID 1578); assay type: functional; conditions: Homo sapiens
HEK293 [16] = assay: cells; assay type: functional, cell-based; conditions: Homo sapiens
HEK293 [17] = assay: cells; assay type: functional, cell-based; conditions: Homo sapiens; remark: listed apart in the source
[18] = target: Nucleotide-binding oligomerization domain-containing protein 2 (Homo sapiens, UniProt Q9HC29); assay: inhibition of NOD2-driven NF-kB reporter – cell-based, luminescence, uHTS, HEK293 (AID 1566); assay type: functional
HEK293 [19] = assay: NOD2 signaling inhibitors in MDP-stimulated cells, cell-based, uHTS, luminescence (AID 2001); assay type: functional; conditions: Homo sapiens
HEK293 [20] = assay: cells; assay type: functional, cell-based; conditions: Homo sapiens; remark: listed apart in the source
Bcl-2-related protein A1 = target: T3, Bcl-2-related protein A1 (Mus musculus, UniProt Q07440); assay type: functional;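 note: confirmatory dose–response counterscreen on Bfl-1, used to check hits from a UBC13 polyubiquitin inhibitor campaign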
T3 sequence (Q07440 whole entry): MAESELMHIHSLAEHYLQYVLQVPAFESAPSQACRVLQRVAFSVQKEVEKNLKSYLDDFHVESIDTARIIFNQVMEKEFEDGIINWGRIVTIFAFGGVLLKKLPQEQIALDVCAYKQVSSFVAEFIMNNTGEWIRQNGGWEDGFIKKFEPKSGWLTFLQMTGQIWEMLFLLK

[21] = target: T4, Ubiquitin-conjugating enzyme E2 N (Homo sapiens, UniProt P61088); assay type: functional
T4 sequence (P61088 whole entry): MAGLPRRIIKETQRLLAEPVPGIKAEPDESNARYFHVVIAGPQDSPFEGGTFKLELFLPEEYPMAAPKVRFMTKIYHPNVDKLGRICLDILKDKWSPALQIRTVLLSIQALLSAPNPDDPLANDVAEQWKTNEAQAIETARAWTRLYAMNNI

[22] = target: T4, Ubiquitin-conjugating enzyme E2 N; assay type: functional; remark: listed apart in the source
[23] = target: T5, DNA repair protein RAD52 homolog (Homo sapiens, UniProt P43351); assay type: functional, biochemical
T5 sequence (P43351 whole entry): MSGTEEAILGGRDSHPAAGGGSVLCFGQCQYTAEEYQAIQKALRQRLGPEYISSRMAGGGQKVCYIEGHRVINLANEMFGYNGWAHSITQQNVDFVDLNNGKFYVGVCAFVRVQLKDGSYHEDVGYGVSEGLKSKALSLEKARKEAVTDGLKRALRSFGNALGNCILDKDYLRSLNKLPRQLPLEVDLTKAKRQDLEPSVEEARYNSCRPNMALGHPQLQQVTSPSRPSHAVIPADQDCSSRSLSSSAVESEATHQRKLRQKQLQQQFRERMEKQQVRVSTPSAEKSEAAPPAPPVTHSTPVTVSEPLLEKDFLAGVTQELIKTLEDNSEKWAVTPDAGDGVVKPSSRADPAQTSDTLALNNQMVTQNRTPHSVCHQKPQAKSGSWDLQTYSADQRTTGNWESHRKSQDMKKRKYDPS

Compound: CC(C)C(=O)NC(c1ccc(Cl)cc1Cl)c1ccc2cccnc2c1O (stereo unspecified)
EC50 (cells [1]): 7.49 µM (active) | EC50 (cells [2]): > 350 µM (not active) | IC50 (Exodeoxyribonuclease V): > 119 µM (inactive) | IC50 [3]: > 119 µM (inactive) | AC50 (HEK293 [4]): 4.52 µM (active) | AC50 [5]: 25.5 µM (active) | AC50 [6]: 0.691 µM (active) | AC50 [7]: 1.11 µM (active) | AC50 [8]: 1.6 µM (active)

IC50 [9]: > 26.5 µM (inactive) | IC50 (Perilipin-1/ABHD5): 21.4 µM (inactive) | IC50 [10]: 50 µM (inactive)
Compound: COc1cc(/C=C(\C#N)C(=O)N2CCc3ccccc32)ccc1O

EC50 [11]: 1 µM (active) | IC50 (Cannabinoid receptor 2 [12]): > 32 µM (inactive) | EC50 (Cannabinoid receptor 2 [13]): < 0.062 µM (active) | EC50 [14]: 1.17 µM (active) | IC50 (Cannabinoid receptor 1): > 32 µM (inactive)
Compound: O=C(CSc1nc2ccccc2s1)N1c2ccccc2Sc2ccc(C(F)(F)F)cc21

Compound: COc1ccc(CCNc2oc(COc3ccccc3Cl)nc2C#N)cc1OC
EC50 (HEK293 [15]): 14 µM (active) | IC50 (HEK293 [16]): 8.53 µM (active) | IC50 (HEK293 [17]): 11.1 µM (active) | EC50 [18]: 16 µM (active) | IC50 (HEK293 [19]): 8.33 µM (active) | IC50 (HEK293 [20]): > 20 µM (inactive)

IC50 (Bcl-2-related protein A1): > 20 µM (inactive) | IC50 [21]: 12.3 µM (active) | IC50 [22]: 10.9 µM (active) | AC50 [23]: 3.52 µM (active)
Compound: N[C@@H](CO)c1cn([C@@H](Cc2cc3ccccc3[nH]2)C(=O)N2CCNCC2)nn1

IC50 (Cannabinoid receptor 2 [12]): > 32 µM (inactive) | EC50 (Cannabinoid receptor 2 [13]): > 32 µM (inactive) | EC50 [14]: 0.681 µM (active) | IC50 (Cannabinoid receptor 1): > 32 µM (inactive)
Compound: C/C(C=NNC(=O)c1nnn(-c2nonc2N)c1CN1CCC(C)CC1)=C/c1ccccc1
